In experiment [1] the test system is E. coli. Nature of the experiment: MIC of compounds against E. coli (OD600, 48 h). It is filed as cell-based. Conditions: Escherichia coli; for inhibition at 12 µM: compound alone at 12 μM, read-out: Growth inhibition of E. coli at 12 μM; for inhibition at 12 µM / MIC: NA=no activity; for inhibition at 25 µM: read-out: Growth inhibition of E. coli at 25 μM, compound alone at 25 μM, NA=no activity; for inhibition at 50 µM: read-out: Growth inhibition of E. coli at 50 μM, compound alone at 50 μM, NA=no activity; for MIC: MIC = 90% growth inhibition, compound alone.

In experiment [2] the test system is B. subtilis. Nature of the experiment: MIC of compounds against B. subtilis (OD600, 48 h). Conditions: Bacillus subtilis; for MIC: MIC = 90% growth inhibition, compound alone; for inhibition at 2 µM: read-out: Growth inhibition of B. subtilis at 2 μM, compound alone at 2 μM; for inhibition at 12 µM: compound alone at 12 μM, read-out: Growth inhibition of B. subtilis at 12 μM; for inhibition at 6 µM: read-out: Growth inhibition of B. subtilis at 6 μM, compound alone at 6 μM, NA=no activity; for inhibition at 12.5 µM: compound alone at 12.5 μM, NA=no activity, read-out: Growth inhibition of B. subtilis at 12.5 μM; for inhibition at 25 µM: read-out: Growth inhibition of B. subtilis at 25 μM, compound alone at 25 μM; for inhibition at 1 µM: read-out: Growth inhibition of B. subtilis at 1 μM, compound alone at 1 μM; for inhibition at 3 µM: read-out: Growth inhibition of B. subtilis at 3 μM, compound alone at 3 μM, NA=no activity. It is filed as cell-based. The method, then: Bacteria were then cultured with varying concentration of the compounds shown below for 48 hours, and then bacterial density was measured based on OD600. The procedure to determine the MIC for each compound against B. subtilis was the same except that the bacteria was cultured in nutrient broth. The MIC of each compound against B. subtilis is shown in Table 2 (NA=no activity, --=not tested).

In general, inhibition refers to how much of the control response was suppressed. What is called MIC is the lowest concentration found to suppress growth. Regarding `N=C(N)c1ccc(OCc2cccc(COc3ccc(C(=N)N)cc3F)c2F)c(F)c1` [drawing 757], in experiment [1], the inhibition at 12 µM stood at 40%, the inhibition at 25 µM is 70% and the inhibition at 50 µM came out at 90%. Further, in experiment [2], the MIC stood at 12.5 µM and the inhibition at 2 µM is 10%.

Regarding `N=C(N)c1ccc2[nH]c(-c3ccc(-c4ccc(-c5ccc(-c6ccc(-c7nc8cc(C(=N)N)ccc8[nH]7)cc6)s5)s4)cc3)nc2c1` [drawing 772], the inhibition at 50 µM in experiment [1] came to 10%. In experiment [2], the inhibition at 12 µM came to 20% and the inhibition at 6 µM turned out to be 20%.

For the molecule `CC(C)(C)c1cc(COc2ccc(C(=N)N)cc2F)cc(COc2ccc(C(=N)N)cc2F)c1` [drawing 789], the MIC in experiment [1] and in experiment [2] was 50 µM each time.

`N=C(N)c1ccc(Oc2ccc(C(=N)N)cc2)cc1` [drawing 755]: in experiment [2], the inhibition at 12.5 µM was 60% and the inhibition at 25 µM is 70%.

With `CCCCc1cc(OCc2ccc(C(=N)N)cc2)cc(OCc2ccc(C(=N)N)cc2)c1` [drawing 796], in experiment [1] (read-out: Growth inhibition of E. coli at 10 μM, compound alone at 10 μM), the inhibition at 10 µM is 20%.

On to `Cc1cc(COc2ccc(C(=N)NC(C)C)cc2)cc(COc2ccc(C(=N)NC(C)C)cc2)c1` [drawing 767], for which, in experiment [1], the inhibition at 12 µM turned out to be 40% and the inhibition at 25 µM was 50%. In experiment [2], the MIC amounted to 6 µM, the inhibition at 1 µM was found to be 60% and the inhibition at 2 µM came to 70%.

Take `N=C(N)c1ccc2nc(-c3ccc(OCC(F)(F)C(F)(F)COc4ccc(-c5nc6ccc(C(=N)N)cc6[nH]5)cc4)cc3)[nH]c2c1` [drawing 753]: the inhibition at 25 µM was found to be 50% in experiment [1] and 20% in experiment [2]. Moreover, in experiment [2], the inhibition at 12.5 µM worked out at 10%.

Turning to `Cc1cc(CSc2ccc(C(=N)N)cc2)cc(CSc2ccc(C(=N)N)cc2)c1` [drawing 791], in experiment [1], the inhibition at 12 µM worked out at 15%. Also, in experiment [2], the inhibition at 3 µM stood at 10% and the inhibition at 6 µM amounted to 40%.

For `N=C(N)c1ccc(OCc2cccc(COc3ccc(C(=N)N)cc3)c2F)cc1` [drawing 758], the values for the inhibition at 12 µM in experiment [1] and in experiment [2] were 80% and 60%, respectively. For the same molecule, the inhibition at 6 µM in experiment [1] (read-out: Growth inhibition of E. coli at 6 μM, compound alone at 6 μM) turned out to be 60%; in experiment [2] it was 50%.

For the molecule `Cc1cc(COc2cccc(C(=N)N)c2)cc(COc2cccc(C(=N)N)c2)c1` [drawing 790], in experiment [1], the inhibition at 50 µM is 80%. Moreover, in experiment [2], the MIC amounted to 50 µM.

Take `COc1cc(C(=N)N)ccc1OCc1cc(COc2ccc(C(=N)N)cc2OC)cc(C(C)(C)C)c1` [drawing 788]: the inhibition at 50 µM in experiment [1] was 80%. In addition, in experiment [2], the inhibition at 3 µM amounted to 30% and the inhibition at 6 µM worked out at 40%.

`Cc1cc(COc2ccc(C(=N)N)cc2)cc(COc2ccc(C(=N)N)cc2)c1` [drawing 761]: in experiment [1], the inhibition at 12 µM amounted to 15% and the inhibition at 25 µM was 25%. For the same molecule, in experiment [2], the inhibition at 12 µM stood at 20% and the inhibition at 25 µM stood at 50%.

As for `Cc1cc(CSc2ccc(C3=NCCN3)cc2)cc(CSc2ccc(C3=NCCN3)cc2)c1` [drawing 792], the inhibition at 12.5 µM in experiment [1] (compound alone at 12.5 μM, read-out: Growth inhibition of E. coli at 12.5 μM) was determined as 10%.

Consider `N=C(N)c1ccc(OCc2ccc(-c3ccc(C(=N)N)cc3)cc2)cc1` [drawing 756], for which, in experiment [1], the inhibition at 25 µM was determined as 50%. In addition, in experiment [2], the minimal inhibitory concentration (MIC) was 12.5 µM and the inhibition at 2 µM came out at 30%.

`CC(C)NC(=N)c1ccc(OCc2cccc(COc3ccc(C(=N)NC(C)C)cc3F)c2F)c(F)c1` [drawing 785]: in experiment [1], the inhibition at 12 µM is 40% and the inhibition at 25 µM is 50%. Besides, in experiment [2], the inhibition at 12 µM was determined as 70% and the inhibition at 6 µM was found to be 60%.

Take `Cc1cc(OCc2ccc(C(=N)N)cc2)cc(OCc2ccc(C(=N)N)cc2)c1` [drawing 783]: the inhibition at 25 µM in experiment [1] is 30%. In experiment [2], the inhibition at 12 µM came out at 20%.

For the molecule `CC(C)NC(=N)c1ccc(OCc2cccc(COc3ccc(C(=N)NC(C)C)cc3)c2F)cc1` [drawing 784], in experiment [1], the inhibition at 12 µM is 60% and the inhibition at 25 µM was 80%. Moreover, in experiment [2], the inhibition at 12 µM amounted to 80% and the inhibition at 6 µM worked out at 70%.

For the molecule `CC(C)(C)c1cc(COc2ccc(C(=N)N)cc2)cc(COc2ccc(C(=N)N)cc2)c1` [drawing 770], in experiment [1], the inhibition at 12 µM came out at 40% and the inhibition at 25 µM is 90%. Moreover, in experiment [2], the MIC turned out to be 6 µM, the inhibition at 1 µM amounted to 10% and the inhibition at 2 µM was found to be 70%.

Consider `Cc1cc(COc2ccc(C3=CCCCN3)cc2)cc(COc2ccc(C3=NCCCN3)cc2)c1`, for which, in experiment [2], the MIC came out at 50 µM and the inhibition at 25 µM was determined as 50%.

As to `CCCNC(=N)c1ccc(COc2cc(C)cc(OCc3ccc(C(=N)NCCC)cc3)c2)cc1` [drawing 786], in experiment [2], the minimal inhibitory concentration (MIC) was found to be 50 µM, the inhibition at 12.5 µM turned out to be 30% and the inhibition at 25 µM was found to be 50%.

With `N=C(N)c1ccc(OCCCCCCOc2ccc(C(=N)N)cc2)cc1` [drawing 778], in experiment [1], the inhibition at 12 µM worked out at 40% and the inhibition at 25 µM was 70%. In addition, in experiment [2], the MIC is 12 µM, the inhibition at 2 µM was found to be 30% and the inhibition at 6 µM was 40%.

As to `COc1cc(C(=N)N)ccc1OCc1cc(C)cc(COc2ccc(C(=N)N)cc2OC)c1` [drawing 768], in experiment [1], the inhibition at 12 µM was 25% and the inhibition at 25 µM was 50%. In addition, in experiment [2], the MIC amounted to 6 µM, the inhibition at 1 µM came to 10% and the inhibition at 2 µM was 50%.

Take `Cc1cc(CCc2ccc(C(=N)N)cc2)cc(CCc2ccc(C(=N)N)cc2)c1` [drawing 782]: in experiment [1], the inhibition at 12 µM was 10% and the inhibition at 25 µM amounted to 20%. Besides, in experiment [2], the inhibition at 12 µM is 80% and the inhibition at 6 µM stood at 30%.

As to `Cn1c(CCc2nc3cc(C(=N)N)ccc3n2C)nc2cc(C(=N)N)ccc21` [drawing 759], the inhibition at 50 µM in experiment [1] was determined as 10%. Besides, in experiment [2], the inhibition at 12.5 µM stood at 20% and the inhibition at 25 µM is 70%.

With `c1cc(COc2ccc(C3=NCCN3)cc2)cc(COc2ccc(C3=NCCN3)cc2)c1` [drawing 762], in experiment [1], the inhibition at 12 µM was 25% and the inhibition at 25 µM is 50%.

With `Cc1cc(COc2ccc(CN)cc2)cc(COc2ccc(CN)cc2)c1` [drawing 780], the inhibition at 12 µM in experiment [1] and in experiment [2] was 10% in each case. Also, the inhibition at 25 µM in experiment [1] is 30%.

`N=C(N)c1ccc(OCCCCCCCCOc2ccc(C(=N)N)cc2)cc1` [drawing 774]: in experiment [1], the MIC was found to be 25 µM.

Consider `CO/N=C(\N)c1ccc(OCc2cc(C)cc(COc3ccc(/C(N)=N\OC)cc3)c2)cc1` [drawing 795], for which the MIC in experiment [1] amounted to 100 µM.

As to `Cc1cc(COc2ccc(C(=N)N)cc2F)cc(COc2ccc(C(=N)N)cc2F)c1` [drawing 794], the inhibition at 25 µM in experiment [1] turned out to be 30%.

For the molecule `N=C(N)c1ccc(OCOc2ccc(C(=N)N)cc2)cc1` [drawing 777], in experiment [2], the inhibition at 12.5 µM stood at 80% and the inhibition at 6 µM turned out to be 10%.

For `Fc1c(COc2ccc(C3=NCCN3)cc2)cccc1COc1ccc(C2=NCCN2)cc1` [drawing 763], the inhibition at 25 µM in experiment [1] came out at 20%.

Consider `Cc1ccc(COc2ccc(C(=N)N)cc2)cc1COc1ccc(C(=N)N)cc1` [drawing 793], for which, in experiment [2], the inhibition at 12 µM came out at 60% and the inhibition at 6 µM amounted to 40%.

In the case of `Cn1c(CCCCc2nc3ccc(C(=N)N)cc3n2C)nc2ccc(C(=N)N)cc21` [drawing 754], in experiment [2], the inhibition at 25 µM stood at 20%.

The record behind these values is patent publication US12595251B2, “Amidines and amidine analogs for the treatment of bacterial infections and potentiation antibiotics” (GEORGIA STATE UNIVERSITY RESEARCH FOUNDATION, INC., priority 2018, dated 2026).
